Legend:
[1] = system: subclones of RKO colon adenocarcinoma cells (RKOp27 or RKOp21) arrested by Ponasterone A; test: Alamar Blue cell viability assay, cell cycle specific mode of action: cells arrested by ectopic p27Kip1 induced by Ponasterone A versus proliferating cells; type: cell-based; conditions: Homo sapiens, RKO p27 induced (arrested) cells, 10 μM Ponasterone A, 72 hours, value = class bound given in Table A, read-out: −logIC50 RKO p27 induced (arrested) (converted)
Procedure: To determine the cell cycle specific mode of action, subclones of RKO colon adenocarcinoma cells (RKOp27 or RKOp21 as described by Schmidt et al. in Oncogene 19, 2423-2429; 2000) are seeded into 96 well flat bottom plates at a density of 15000 cells per well in a volume of 50 μl per well in DMEM growth medium with 10% FCS containing 10 μM Ponasterone A. 24 hours after seeding the 50 μl each of the compound dilutions in DMEM medium are added into each well of the 96 Well plate. Each compound dilution is tested as quadruplicates. Wells containing untreated control cells are filled with 50 μl DMEM medium containing 1% DMSO. The cells are then incubated with the substances for 72 hours at 37° C. in a humidified athmosphere containing 5% carbon dioxide. To determine the viability of the cells, 10 μl of an Alamar Blue solution (Biosource) are added and the fluorescence was measured at an extinction of 544 nm and an emission of 590 nm. For the calculation of the cell viability the emission value from untreated cells is set as 100% viability and the emission rates of treated cells are set in relation to the values of untreated cells. Viabilities are expressed as % values. Viability is compared of proliferating cells grown in the absence of the inducer Ponasterone A, versus viability of cells arrested by the expression of ectopic p27Kip1 induced by Ponasterone A.
(§1) Representative −log IC50 [mol/l] values for anti-proliferation/cytotoxicity determined in the mentioned assays follow from the following table A, in which the numbers of the compound correspond to the numbers of the examples.

[2] = system: RKO (RKOp27) human colon adenocarcinoma cells; test: Alamar Blue cell viability assay, anti-proliferative/cytotoxic activity on proliferating RKO subclones; type: cell-based; conditions: RKOp27, 72 h, RKO p27 uninduced (proliferating) cells, value = class bound given in Table A, read-out: −logIC50 RKO p27 uninduced (proliferating) (converted)
Procedure: The anti-proliferative/cytotoxic activity of the compounds described herein, can be tested on subclones of RKO (RKOp27) human colon adenocarcinoma cells (Schmidt et al., Oncogene 19, 2423-2429; 2000) using the Alamar Blue cell viability assay (described in O'Brien et al. Eur J Biochem 267, 5421-5426, 2000). The compounds are dissolved as 20 mM solutions in dimethylsulfoxide (DMSO) and subsequently diluted in semi-logarithmic steps. DMSO dilutions are further diluted 1:100 into Dulbecco's modified Eagle's medium (DMEM) containing 10% fetal calf serum to a final concentration twice as much as the final concentration in the test. RKO subclones are seeded into 96 well flat bottom plates at a density of 5000 cells per well in a volume of 50 μl per well. 24 hours after seeding the 50 μl each of the compound dilutions in DMEM medium are added into each well of the 96 Well plate. Each compound dilution is tested as quadruplicates. Wells containing untreated control cells are filled with 50 μl DMEM medium containing 1% DMSO. The cells are then incubated with the substances for 72 hours at 37° C. in a hunified atmosphere containing 5% carbon dioxide. To determine the viability of the cells, 10 μl of an Alamar Blue solution (Biosource) are added and the fluorescence is measured at an extinction of 544 nm and an emission of 590 nm. For the calculation of the cell viability the emission value from untreated cells is set as 100% viability and the emission rates of treated cells are set in relation to the values of untreated cells. Viabilities are expressed as % values.
The corresponding IC50 values of the compounds for anti-proliferative/cytotoxic activity are determined from the concentration-effect curves.
as §1

Row | SMILES | IC50 [1] [nM] | IC50 [2] [nM]
1 | CC(C)N(C)C(=O)OCC1CCc2c(sc(NC(=O)/C=C/c3cccnc3)c2C#N)C1 (centres unmarked) [Example 97, Isopropyl-methyl-carbamic acid 3-cyano-2-((E)-3-pyridin-3-yl-allanoylamino)-4,5,6,7-tetrahydro-benzo[b]thiophen-6-ylmethyl ester] | ≥ 100000 | ≤ 501
2 | COc1cccc(CCC(=O)Nc2sc3c(c2C#N)CCC(OC(=O)NCc2csc(C)n2)C3)c1 (centres unmarked) [Example 232, (2-Methyl-thiazol-4-ylmethyl)-carbamic acid 3-cyano-2-[3-(3-methoxy-phenyl)-propanoylamino]-4,5,6,7-tetrahydro-benzo[b]thiophen-6-yl ester] | ≥ 100000 | 501 to 2000
3 | CCOc1ccccc1CCC(=O)Nc1sc2c(c1C#N)CCC(OC(=O)NCc1ncc[nH]1)C2 (centres unmarked) [Example 185, (1H-Imidazol-2-ylmethyl)-carbamic acid 3-cyano-2-[3-(2-ethoxy-phenyl)-propanoylamino]-4,5,6,7-tetrahydro-benzo[b]thiophen-6-yl ester] | ≥ 10000 | ≤ 501
4 | COc1cccc(C(C)CC(=O)Nc2sc3c(c2C#N)CCC(OC(=O)NCc2conc2C)C3)c1 (centres unmarked) [Example 361, (3-Methyl-isoxazol-4-ylmethyl)-carbamic acid 3-cyano-2-[3-(3-methoxy-phenyl)-butanoyl-amino]-4,5,6,7-tetrahydro-benzo[b] thiophen-6-yl ester] | ≥ 100000 | ≤ 501
5 | COc1cccc(CCC(=O)Nc2sc3c(c2C#N)CCC(COC(=O)NCc2ccccn2)C3)c1 (centres unmarked) [Example 235, Pyridin-2-ylmethyl-carbamic acid 3-cyano-2-[3-(3-methoxy-phenyl)-propanoylamino]-4,5,6,7-tetrahydro-benzo[b]thiophen-6-ylmethyl ester] | ≥ 100000 | 501 to 2000
6 | CCOc1ccccc1CCC(=O)Nc1sc2c(c1C#N)CCC(COC(=O)OCc1ccsn1)C2 (centres unmarked) [Example 202, Carbonic acid 3-cyano-2-[3-(2-ethoxy-phenyl)-propanoylamino]-4,5,6,7-tetrahydro-benzo[b]thiophen-6-ylmethyl ester isothiazol-3-ylmethyl ester] | ≥ 100000 | ≤ 501
7 | CCNC(=O)OCC1CCc2c(sc(NC(=O)/C=C/c3cccnc3)c2C#N)C1 (centres unmarked) [Example 9, Ethyl-carbamic acid 3-cyano-2-((E)-3-pyridin-3-yl-allanoylamino)-4,5,6,7-tetrahydro-benzo[b]thiophen-6-ylmethyl ester] | ≥ 100000 | 501 to 2000
8 | N#Cc1c(NC(=O)/C=C/c2cccnc2)sc2c1CCC(OC(=O)NCc1ccccc1)C2 (centres unmarked) [Example 2, Benzyl-carbamic acid 3-cyano-2-((E)-3-pyridin-3-yl-allanoylamino)-4,5,6,7-tetrahydro-benzo[b]thiophen-6-yl ester] | ≥ 10000 | 501 to 2000
9 | CCn1nccc1CNC(=O)OC1CCc2c(sc(NC(=O)CC(C)c3cccc(OC)c3)c2C#N)C1 (centres unmarked) [Example 286, (2-Ethyl-2H-pyrazol-3-ylmethyl)-carbamic acid 3-cyano-2-[3-(3-methoxy-phenyl)-butanoylamino]-4,5,6,7-tetrahydro-benzo[b] thiophen-6-yl ester] | ≥ 100000 | ≤ 501

Second part, led by results:

Row | IC50 [1] [nM] | SMILES | IC50 [2] [nM]
10 | ≥ 100000 | COc1cccc(C(C)CC(=O)Nc2sc3c(c2C#N)CCC(COC(=O)NCc2csc(C)n2)C3)c1 (centres unmarked) [Example 363, (2-Methyl-thiazol-4-ylmethyl)-carbamic acid 3-cyano-2-[3-(3-methoxy-phenyl)-butanoyl-amino]-4,5,6,7-tetrahydro-benzo[b]thiophen-6-ylmethyl ester] | 501 to 2000
11 | ≥ 100000 | Cc1nocc1CNC(=O)OC1CCc2c(sc(NC(=O)/C=C/c3cccnc3)c2C#N)C1 (centres unmarked) [Example 59, (3-Methyl-isoxazol-4-ylmethyl)-carbamic acid 3-cyano-2-((E)-3-pyridin-3-yl-allanoylamino)-4,5,6,7-tetrahydro-benzo[b]thiophen-6-yl ester] | ≤ 501
12 | ≥ 100000 | COc1cccc(CCC(=O)Nc2sc3c(c2C#N)CCC(OC(=O)OCc2cccnc2)C3)c1 (centres unmarked) [Example 219, Carbonic acid 3-cyano-2-[3-(3-methoxy-phenyl)-propanoylamino]-4,5,6,7-tetrahydro-benzo[b]thiophen-6-yl ester pyridin-3-ylmethyl ester] | 501 to 2000
13 | ≥ 100000 | COc1cccc(CCC(=O)Nc2sc3c(c2C#N)CCC(COC(=O)NCc2cc(C)no2)C3)c1 (centres unmarked) [Example 244, (3-Methyl-isoxazol-5-ylmethyl)-carbamic acid 3-cyano-2-[3-(3-methoxy-phenyl)-propanoylamino]-4,5,6,7-tetrahydro-benzo[b]thiophen-6-ylmethyl ester] | ≤ 501
14 | ≥ 100000 | CCOc1ccccc1/C=C/C(=O)Nc1sc2c(c1C#N)CCC(COC(=O)NCCO)C2 (centres unmarked) [Example 28, (2-Hydroxy-ethyl)-carbamic acid 3-cyano-2-[(E)-3-(2-ethoxy-phenyl)-allanoylamino]-4,5,6,7-tetrahydro-benzo[b]thiophen-6-ylmethyl ester] | 501 to 2000
15 | ≥ 100000 | COc1cccc(C(C)CC(=O)Nc2sc3c(c2C#N)CCC(OC(=O)NCc2ccncc2)C3)c1 (centres unmarked) [Example 269, Pyridin-4-ylmethyl-carbamic acid 3-cyano-2-[3-(3-methoxy-phenyl)-butanoylamino]-4,5,6,7-tetrahydro-benzo[b]thiophen-6-yl ester] | 501 to 2000
16 | ≥ 100000 | CCOc1ccccc1/C=C/C(=O)Nc1sc2c(c1C#N)CCC(OC(=O)OCCOC)C2 (centres unmarked) [Example 11, Carbonic acid 3-cyano-2-[(E)-3-(2-ethoxy-phenyl)-allanoylamino]-4,5,6,7-tetrahydro-benzo[b]thiophen-6-yl ester 2-methoxy-ethyl ester] | ≤ 501
17 | ≥ 100000 | N#Cc1c(NC(=O)/C=C/c2cccnc2)sc2c1CCC(COC(=O)NCCO)C2 (centres unmarked) [Example 29, (2-Hydroxy-ethyl)-carbamic acid 3-cyano-2-((E)-3-pyridin-3-yl-allanoylamino)-4,5,6,7-tetrahydro-benzo[b]thiophen-6-ylmethyl ester] | 501 to 2000
18 | ≥ 100000 | COC1CN(C(=O)OCC2CCc3c(sc(NC(=O)/C=C/c4cccnc4)c3C#N)C2)C1 (centres unmarked) [Example 115, 3-Methoxy-azetidine-1-carboxylic acid 3-cyano-2-((E)-3-pyridin-3-yl-allanoylamino)-4,5,6,7-tetrahydro-benzo[b]thiophen-6-ylmethyl ester] | 501 to 2000
19 | ≥ 10000 | CC(CC(=O)Nc1sc2c(c1C#N)CCC(OC(=O)NCc1ccncc1)C2)c1ccccc1 (centres unmarked) [Example 289, Pyridin-4-ylmethyl-carbamic acid 3-cyano-2-(3-phenyl-butanoylamino)-4,5,6,7-tetrahydro-benzo[b] thiophen-6-yl ester] | ≤ 501
20 | ≥ 50100 | CC(CC(=O)Nc1sc2c(c1C#N)CCC(COC(=O)NC1CCOCC1)C2)c1ccccc1 (centres unmarked) [Example 309, (Tetrahydro-pyran-4-yl)-carbamic acid 3-cyano-2-(3-phenyl-butanoylamino)-4,5,6,7-tetrahydro-benzo[b]thiophen-6-ylmethyl ester] | ≤ 501
21 | ≥ 10000 | COc1cccc(C(C)CC(=O)Nc2sc3c(c2C#N)CCC(COC(=O)NCc2ccncc2)C3)c1 (centres unmarked) [Example 326, Pyridin-4-ylmethyl-carbamic acid 3-cyano-2-[3-(3-methoxy-phenyl)-butanoylamino]-4,5,6,7-tetrahydro-benzo[b]thiophen-6-ylmethyl ester] | 501 to 2000
22 | ≥ 100000 | N#Cc1c(NC(=O)/C=C/c2cccnc2)sc2c1CCC(OC(=O)NC1COC1)C2 (centres unmarked) [Example 148, Oxetan-3-yl-carbamicacid 3-cyano-2-((E)-3-pyridin-3-yl-allanoylamino)-4,5,6,7-tetrahydro-benzo[b]thiophen-6-yl ester] | 501 to 2000

Source: US20110044938A1 (NYCOMED GMBH, priority 2006, published 2011)
